Assay results reported in ChEMBL document CHEMBL6182948 (J Med Chem, 2025).

Experiments:
Cytochrome P450 1A1 = target: T1, Cytochrome P450 1A1 (Homo sapiens, UniProt P04798); assay: Inhibition of human recombinant CYP1A1 using 7-ethoxyresorufin as substrate incubated under dark condition for 15 mins in presence of NADPH by EROD fluorescence assay; assay type: ADME
T1 sequence (P04798 whole entry): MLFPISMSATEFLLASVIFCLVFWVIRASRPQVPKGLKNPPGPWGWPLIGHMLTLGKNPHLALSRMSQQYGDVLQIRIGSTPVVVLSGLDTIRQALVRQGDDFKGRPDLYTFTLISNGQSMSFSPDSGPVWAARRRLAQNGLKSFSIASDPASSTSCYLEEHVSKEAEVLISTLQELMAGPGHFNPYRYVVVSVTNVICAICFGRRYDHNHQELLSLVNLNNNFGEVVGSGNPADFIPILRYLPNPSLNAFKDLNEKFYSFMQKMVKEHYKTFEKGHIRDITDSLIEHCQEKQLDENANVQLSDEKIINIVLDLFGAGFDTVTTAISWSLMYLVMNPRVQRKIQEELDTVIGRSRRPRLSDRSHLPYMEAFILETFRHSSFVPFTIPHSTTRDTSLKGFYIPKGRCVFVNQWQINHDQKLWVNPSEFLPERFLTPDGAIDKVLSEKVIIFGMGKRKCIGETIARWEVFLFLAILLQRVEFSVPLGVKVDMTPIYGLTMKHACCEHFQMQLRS

CYP1B1 = target: T2, CYP1B1 (Homo sapiens, UniProt Q16678); assay: Inhibition of human recombinant CYP1B1 using 7-ethoxyresorufin as substrate at 100 uM incubated under dark condition for 30 mins in presence of NADPH by EROD fluorescence assay relative to control; assay type: ADME; conditions: recombinant CYP1B1, probe 7-ethoxyresorufin
T2 sequence (Q16678 whole entry): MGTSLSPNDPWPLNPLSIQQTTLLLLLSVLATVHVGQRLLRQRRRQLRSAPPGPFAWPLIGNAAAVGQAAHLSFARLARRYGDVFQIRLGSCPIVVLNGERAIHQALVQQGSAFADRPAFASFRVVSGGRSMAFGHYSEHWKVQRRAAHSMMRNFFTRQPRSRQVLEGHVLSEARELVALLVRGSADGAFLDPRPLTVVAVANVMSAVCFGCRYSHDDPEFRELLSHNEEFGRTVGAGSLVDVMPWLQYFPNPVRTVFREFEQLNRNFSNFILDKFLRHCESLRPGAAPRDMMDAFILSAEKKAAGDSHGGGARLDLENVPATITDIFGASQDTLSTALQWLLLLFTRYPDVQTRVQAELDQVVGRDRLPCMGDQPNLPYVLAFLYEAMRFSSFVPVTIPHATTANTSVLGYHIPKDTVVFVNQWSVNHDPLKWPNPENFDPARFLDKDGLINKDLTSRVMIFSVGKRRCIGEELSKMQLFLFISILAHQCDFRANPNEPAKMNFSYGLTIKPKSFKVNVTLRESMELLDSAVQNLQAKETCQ

Homo sapiens [1] = species: Homo sapiens; assay: Selectivity index, ratio of IC50 for human recombinant CYP1A2 to IC50 for human recombinant CYP1B1 using 7-ethoxyresorufin as substrate
Homo sapiens [2] = species: Homo sapiens; assay: Selectivity index, ratio of IC50 for human recombinant CYP1A1 to IC50 for human recombinant CYP1B1 using 7-ethoxyresorufin as substrate
Cytochrome P450 1A2 = target: T3, Cytochrome P450 1A2 (Homo sapiens, UniProt P05177); assay: Inhibition of human recombinant CYP1A2 using 7-ethoxyresorufin as substrate incubated under dark condition for 45 mins in presence of NADPH by EROD fluorescence assay; assay type: ADME
T3 sequence (P05177 whole entry): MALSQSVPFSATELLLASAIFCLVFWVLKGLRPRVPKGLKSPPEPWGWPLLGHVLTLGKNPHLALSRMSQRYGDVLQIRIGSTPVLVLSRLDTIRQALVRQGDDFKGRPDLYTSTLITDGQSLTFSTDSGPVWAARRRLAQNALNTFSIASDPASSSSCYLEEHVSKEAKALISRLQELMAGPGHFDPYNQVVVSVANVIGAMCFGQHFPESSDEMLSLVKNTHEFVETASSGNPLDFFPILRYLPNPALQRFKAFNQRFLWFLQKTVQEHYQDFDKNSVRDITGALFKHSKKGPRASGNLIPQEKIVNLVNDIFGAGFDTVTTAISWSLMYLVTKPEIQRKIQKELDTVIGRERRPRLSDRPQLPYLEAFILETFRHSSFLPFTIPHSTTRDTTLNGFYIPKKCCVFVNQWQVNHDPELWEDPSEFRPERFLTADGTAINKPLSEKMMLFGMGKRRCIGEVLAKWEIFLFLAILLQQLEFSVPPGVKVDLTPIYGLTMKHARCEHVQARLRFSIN

Cytochrome P450 1B1 = target: T4, Cytochrome P450 1B1 (Homo sapiens, UniProt Q16678); assay: Inhibition of human recombinant CYP1B1 using 7-ethoxyresorufin as substrate incubated under dark condition for 30 mins in presence of NADPH by EROD fluorescence assay; assay type: ADME
T4 sequence (Q16678 whole entry): T2 sequence (Q16678 whole entry)

IC50 (Cytochrome P450 1A1) | inhibition at 0.5 h, 100 µM (CYP1B1) | Ratio IC50 (Homo sapiens [1]) | Ratio IC50 (Homo sapiens [2]) | IC50 (Cytochrome P450 1A2) | IC50 (Cytochrome P450 1B1) | SMILES
208 nM | 96.2% | 8 | 20.5 | 80.9 nM | 10.1 nM | O=C(Nc1cc(Cl)ccc1Cl)c1nc(-c2ccccc2)cs1
1720 nM | 99.9% | 447 | 721 | 1070 nM | 2.39 nM | O=C(Nc1ccc(C(F)F)cc1)c1nc(-c2ccccc2)cs1
– | 62.8% | – | – | – | – | COc1cc(NC(=O)c2nc(-c3ccccc3)cs2)cc(OC)c1OC
977 nM | 94.2% | 27.1 | 26.4 | 1000 nM | 37 nM | Cc1ccc(NC(=O)c2nc(-c3ccccc3)cs2)cc1
210 nM | 100% | 2610 | 808 | 679 nM | 0.26 nM | O=C(Nc1ccc(OC(F)F)cc1)c1nc(-c2ccccc2)cs1
450 nM | 99.5% | 952 | 951 | 450 nM | 0.47 nM | O=C(Nc1ccc(C(F)(F)F)cc1)c1nc(-c2ccccc2)cs1
– | 54.6% | – | – | – | – | NC(=O)c1ccc(NC(=O)c2nc(-c3ccccc3)cs2)cc1
– | 77.4% | – | – | – | – | O=C(Nc1cccc(Cl)c1)c1nc(-c2ccccc2)cs1
785 nM | 89.3% | – | 31.1 | 438 nM | 25.2 nM | COc1ccc(NC(=O)c2nc(-c3ccccc3)cs2)c(OC)c1
– | 20.5% | – | – | – | – | O=C(Nc1ccc(N2CCOCC2)cc1)c1nc(-c2ccccc2)cs1
164 nM | 100% | 377 | 410 | 151 nM | 0.4 nM | O=C(Nc1ccc(I)cc1)c1nc(-c2ccccc2)cs1
– | 69.6% | – | – | – | – | O=C(Nc1ccccc1F)c1nc(-c2ccccc2)cs1
251 nM | 102% | 137 | 70.3 | 488 nM | 3.57 nM | O=C(Nc1ccc(Cl)cc1Cl)c1nc(-c2ccccc2)cs1
621 nM | 87.4% | 156 | 134 | 724 nM | 4.65 nM | COc1cc(NC(=O)c2nc(-c3ccccc3)cs2)cc(OC)c1
213 nM | 92.2% | 63.4 | 28.6 | 472 nM | 7.45 nM | O=C(Nc1ccc(OC(F)(F)F)cc1)c1nc(-c2ccccc2)cs1
– | 21.2% | – | – | – | – | O=C(Nc1ccc(-c2ccccc2)cc1)c1nc(-c2ccccc2)cs1
213 nM | 102% | 327 | 180 | 386 nM | 1.18 nM | O=C(Nc1ccc(Cl)cc1)c1nc(-c2ccccc2)cs1
870 nM | 99.3% | 73.4 | 113 | 563 nM | 7.68 nM | N#Cc1ccc(NC(=O)c2nc(-c3ccccc3)cs2)cc1
129 nM | – | 147 | 107 | 178 nM | 1.21 nM | O=C(Nc1cc(Cl)cc(Cl)c1)c1nc(-c2ccccc2F)cs1

IC50 (Cytochrome P450 1A1) | inhibition at 0.5 h, 100 µM (CYP1B1) | Ratio IC50 (Homo sapiens [1]) | Ratio IC50 (Homo sapiens [2]) | IC50 (Cytochrome P450 1A2) | IC50 (Cytochrome P450 1B1) | SMILES
141 nM | – | > 12100 | 170 | > 10000 nM | 0.83 nM | NC(=O)c1ccc(-c2csc(C(=O)Nc3ccc(C(F)(F)F)cc3)n2)cc1
150 nM | – | 225 | 104 | 324 nM | 1.44 nM | O=C(Nc1ccc(I)cc1)c1nc(-c2cccc(F)c2)cs1
167 nM | – | > 413 | 0.7 | > 100000 nM | 242 nM | CC(=O)Nc1ccc(-c2csc(C(=O)Nc3cc(Cl)cc(Cl)c3)n2)cc1
149 nM | – | 1240 | 77.4 | 2380 nM | 1.92 nM | O=C(Nc1ccc(Cl)cc1Cl)c1nc(-c2cccc(F)c2)cs1
223 nM | 102% | 212 | 66.2 | 712 nM | 3.36 nM | O=C(Nc1cc(Cl)cc(Cl)c1)c1nc(-c2ccccc2)cs1
414 nM | – | > 2610 | 108 | > 10000 nM | 3.83 nM | COc1cc(NC(=O)c2nc(-c3ccc(F)cc3)cs2)cc(OC)c1
11.5 nM | – | 5.5 | 6.5 | 9.7 nM | 1.77 nM | O=C(Nc1cc(Cl)cc(Cl)c1)c1nc(-c2cncc(Cl)c2)cs1
52.8 nM | – | 1270 | 99.6 | 670 nM | 0.53 nM | O=C(Nc1ccc(C(F)(F)F)cc1)c1nc(-c2cccc(Cl)c2)cs1
– | 8.7% | – | – | – | – | O=C(Nc1ccc(N2CCNCC2)cc1)c1nc(-c2ccccc2)cs1
113 nM | – | > 101000 | 114 | > 100000 nM | 0.99 nM | N#Cc1ccc(-c2csc(C(=O)Nc3ccc(OC(F)F)cc3)n2)cc1
64.4 nM | – | 2490 | 32 | 5010 nM | 2.01 nM | NC(=O)c1cccc(-c2csc(C(=O)Nc3ccc(OC(F)F)cc3)n2)c1
386 nM | – | 912 | 266 | 1330 nM | 1.45 nM | O=C(Nc1cc(Cl)cc(Cl)c1)c1nc(-c2ccc(Cl)cc2)cs1
68.3 nM | – | > 23400 | 16 | > 100000 nM | 4.28 nM | O=C(Nc1cc(Cl)cc(Cl)c1)c1nc(-c2ccnc(Cl)c2)cs1
> 10000 nM | – | 71 | > 445 | 1590 nM | 22.5 nM | O=C(Nc1cc(Cl)cc(Cl)c1)c1nc(-c2ccc(I)cc2)cs1
143 nM | – | 34400 | 7170 | 688 nM | 0.02 nM | O=C(Nc1ccc(OC(F)F)cc1)c1nc(-c2cccc(F)c2)cs1
> 100000 nM | – | > 1250 | > 12500 | > 10000 nM | 7.97 nM | NC(=O)c1ccc(-c2csc(C(=O)Nc3cc(Cl)cc(Cl)c3)n2)cc1
1340 nM | – | > 8640 | 116 | > 100000 nM | 11.6 nM | NC(=O)c1cccc(-c2csc(C(=O)Nc3cc(Cl)cc(Cl)c3)n2)c1
226 nM | – | > 990 | 2.2 | > 100000 nM | 101 nM | CCc1sc(C(=O)Nc2cc(Cl)cc(Cl)c2)nc1-c1ccc(F)cc1
122 nM | – | 1600 | 138 | 1410 nM | 0.88 nM | Cc1sc(C(=O)Nc2cc(Cl)cc(Cl)c2)nc1-c1cccc(F)c1
